Assay [1] has as its system HS578T (MSL) cells. The assay can be described thus: Drug sensitivity assay (cell growth test), sulforhodamine B. Particulars: Homo sapiens, Hs-578T, 72 hours; for inhibition at 0.1 µM: 100 nM, index 12.5% growth inhibition rate; for inhibition at 1 µM: index 25% growth inhibition rate; for inhibition at 10 µM: index 50% growth inhibition rate. Type of assay: cell-based. As to the method:
(§1) Cultured cells were treated with a MEK inhibitor and a PI3K inhibitor in various concentrations, and cell lines sensitive to MEK and PI3K were classified by calculating a cell growth inhibition rate. The culture method and analysis method are as follows.
(§2) Thirteen types of cells used in the present study, HCC38 (BL1), MDA-MB-231 (MSL), DU4475 (IM), HCC1187 (IM), HCC1143 (BL1), HCC1395 (LAR), HCC1937 (BL1), MDA-MB-453 (LAR), HCC70 (BL2), HS578T (MSL), MDA-MB-157 (MSL) and MDA-MB-468 (BL1), were obtained from American type culture collection (ATCC), and SUM185PE (LAR) was obtained from ASTERAND BIOSCIENCE. All the cells belong to triple negative breast cancer (TNBC), and it is known which of six types (BL1, BL2, M, MSL, IM and LAR) these belong to by an existing classification method.
(§3) All the cells were cultured in a medium designated from a source of supply, and 2 mM L-glutamine and 10% fetal bovine serum (FBS) were supplemented.
(§4) Each type of cells was seeded in a 96 well titer plate at 1×10^4 cells/well, and trametinib, an MEK inhibitor (Medchem Express; 0.08, 0.16, 0.31, 0.63, 1.25, 2.5, 5, 10 and 20 μM), and wortmannin, a PI3K inhibitor (Wako Pure Chemical Industries, Ltd.; 0.08, 0.16, 0.31, 0.63, 1.25, 2.5, 5, 10 and 20 μM) were dissolved in Dimethyl Sulfoxide [DMSO] (Wako Pure Chemical Industries, Ltd.) in various concentrations and treated. In addition, the effect on cell growth was examined at 72 hours after the inhibitor by sulforhodamine B assay (manufactured by SIGMA-ALDRICH), and 50 μL of sulforhodamine B solution was added to each well and cells were left at room temperature for an hour for staining. The staining degree of metabolically survival cells was examined by monitoring absorbance at a wavelength of 565 nm using a microtiter plate. The absorbance of cells which were not treated with trametinib and wortmannin (treated with DMSO) was used as a control and defined as 100% to calculate a cell growth inhibition rate.
(§5) The cell lines were classified into 4 types, cell lines sensitive to wortmannin (hereinafter, PA), cell lines sensitive to trametinib (hereinafter, MA), cell lines resistant to wortmannin and trametinib (hereinafter, R), and others (hereinafter, S). In the classification, first the inhibition rate of each drug was calculated in a concentration of 1 μM, and the inhibition rate (%) by trametinib and the inhibition rate (%) by wortmannin were plotted on the X axis and Y axis respectively on a graph.
(§6) The cell lines were classified into 4 types, cell lines sensitive to wortmannin (hereinafter, PA), cell lines sensitive to trametinib (hereinafter, MA), cell lines resistant to wortmannin and trametinib (hereinafter, R), and others (hereinafter, S). In the classification, first the inhibition rate of each drug was calculated in a concentration of 100 nM, and the inhibition rate (%) by trametinib and the inhibition rate (%) by wortmannin were plotted on the X axis and Y axis respectively on a graph.
as §5, with “10” for “1”, “graph. Using a 50% growth inhibition rate as an index of the inhibitive effect of a drug, cells were classified into 4 types by grid analysis.” for “graph.”

For assay [2], the system named is MDA-MB-231 (MSL) cells. The description is as above. Type of assay: cell-based. Particulars: Homo sapiens, 72 hours; for inhibition at 0.1 µM: MDA-MB-231, 100 nM, index 12.5% growth inhibition rate; for inhibition at 1 µM: MDA-MB-231, 1 μM, index 25% growth inhibition rate; for inhibition at 10 µM: MDA-MB-231, 10 μM, index 50% growth inhibition rate. As for the experimental part:
as §1, §2, §3, §4, §5, §6
as §5, with “10” for “1”, “graph. Using a 50% growth inhibition rate as an index of the inhibitive effect of a drug, cells were classified into 4 types by grid analysis.” for “graph.”

In assay [3] the test system is HCC1143 (BL1) cells. The assay is described as above. Format: cell-based. The settings on record: Homo sapiens, 72 hours; for inhibition at 0.1 µM: HCC1143, 100 nM, index 12.5% growth inhibition rate; for inhibition at 1 µM: HCC1143, 1 μM, index 25% growth inhibition rate; for inhibition at 10 µM: HCC1143, 10 μM, index 50% growth inhibition rate. As for the experimental part:
as §1, §2, §3, §4, §5, §6
as §5, with “10” for “1”, “graph. Using a 50% growth inhibition rate as an index of the inhibitive effect of a drug, cells were classified into 4 types by grid analysis.” for “graph.”

The test system of assay [4] is MDA-MB-468 (BL1) cells. Described as above. Particulars: Homo sapiens, 72 hours; for inhibition at 0.1 µM: MDA-MB-468, 100 nM, index 12.5% growth inhibition rate; for inhibition at 1 µM: MDA-MB-468, 1 μM, index 25% growth inhibition rate; for inhibition at 10 µM: MDA-MB-468, 10 μM, index 50% growth inhibition rate. Type of assay: cell-based. As for the experimental part:
as §1, §2, §3, §4, §5, §6
as §5, with “10” for “1”, “graph. Using a 50% growth inhibition rate as an index of the inhibitive effect of a drug, cells were classified into 4 types by grid analysis.” for “graph.”

For assay [5], the system named is SUM185PE derived tumor. Nature of the assay: Test of suppressing tumor growth by drug administration using tumor-bearing mice. Type of assay: in vivo, nude mice. Particulars: 0.3 mg/kg orally once-daily for 14 days. As to the method:
(§7) A cultured triple negative breast cancer cell line was injected under the skin of nude mice to create cancer-bearing mice, and a tumor tissue was established and a PI3K inhibitor and an MEK inhibitor were then administered. Tumor volumes were measured to observe an anti-tumor effect. The method for preparing a tumor-bearing mice and the administration route are as follows.
(§8) The cell lines of MDA-MB-231, HCC70 and SUM185PE were cultured by the above-described method, and after release with trypsin, the cells was suspended with Matrigel basement membrane matrix (manufactured by Corning Incorporated) to about 7×10^6 cells/mL to prepare a cell suspension. Using a 27 gauge syringe, 0.1 mL of cell suspension was injected under the skin of 5-week old female nude mice (manufactured by CLEA Japan, Inc.) to prepare tumor-bearing mice.
(§9) Trametinib, an MEK inhibitor, and wortmannin, a PI3K inhibitor, were each dissolved in PBS with 1% dimethylsulfoxide (DMSO) to 0.3 mg/kg to obtain a drug solution. In addition, PBS with 1% DMSO was used as a control.
(§10) Individuals whose tumor volume reached 300 mm^3 were randomly divided into 3 groups and administration was initiated. As an administration route, a drug solution was orally administered once-daily for 14 days and the tumor volume was observed. The tumor volume was calculated by major axis×(minor axis)^2/2.
(§11) FIGS. 33 to 35 show the results of the test of suppressing tumor growth by each inhibitor using the number of individuals N=6 in each group (Control group, Trametinib-administered group and Wortmannin-administered group) (FIG. 33: MDA-MB-231 derived tumor-bearing mice, FIG. 34: HCC70 derived tumor-bearing mice, and FIG. 35: SUM185PE derived tumor-bearing mice). […] Mann-Whitney U test was used as the test method.

Assay [6] has as its system HCC70 derived tumor. The description is as above. Format: in vivo, nude mice. Particulars: 0.3 mg/kg orally once-daily for 14 days. As for the experimental part:
as §7, §8, §9, §10, §11

In assay [7] the test system is MDA-MB-231 derived tumor. The description is as above. Format: in vivo, nude mice. Particulars: MDA-MB-231 derived tumor-bearing mice; 0.3 mg/kg orally once-daily for 14 days. As to the method:
as §7, §8, §9, §10, §11

Where [8] appears, read: read-out: inhibition rate (%) by trametinib, classification by grid analysis.
[9] abbreviates: read-out: inhibition rate (%) by wortmannin, classification by grid analysis.

These results are taken from patent publication US10995359B2, “Method for determining drug-sensitive human cell lines by analysis method in which measurement of activity of two types of protein kinase is used” (NITTO BOSEKI CO., LTD., priority 2015, dated 2021).

The structures appear in SMILES notation. Read-outs that look alike come from different tables or passages of the source.

Turning to `CC(=O)Nc1cccc(-n2c(=O)n(C3CC3)c(=O)c3c(Nc4ccc(I)cc4F)n(C)c(=O)c(C)c32)c1` [trametinib], the inhibition (as a rule, the drop in the measured response relative to a control, in per cent) at 0.1 µM in assay [1] (setting [8]) is below 12.5%; in assay [2] (setting [8]), above 12.5%; in assay [3] (setting [8]), above 12.5%; in assay [4] (setting [8]), below 12.5%. Moreover, the inhibition at 1 µM in assay [1] (setting [8]) is below 25%; in assay [2] (setting [8]), above 25%; in assay [3] (setting [8]), above 25%; in assay [4] (setting [8]), below 25%. The inhibition at 10 µM in assay [1] (setting [8]) was below 50%; in assay [2] (setting [8]), above 50%; in assay [3] (setting [8]), above 50%; in assay [4] (setting [8]), below 50%. Moreover, the results for the “suppression of tumor growth (in words)” value in assay [5], in assay [6] and in assay [7] were “a significant growth suppressive effect was not obtained”, “a significant growth suppressive effect was observed” and “significantly suppressed”, respectively.
In the case of `COC[C@H]1OC(=O)c2coc3c2[C@@]1(C)C1=C(C3=O)[C@@H]2CCC(=O)[C@@]2(C)C[C@H]1OC(C)=O` [wortmannin, Wortmannin], the inhibition at 0.1 µM was below 12.5% in assay [1] (setting [9]), below 12.5% in assay [2] (setting [9]), below 12.5% in assay [3] (setting [9]) and above 12.5% in assay [4] (setting [9]). Besides, the inhibition at 1 µM in assay [1] (setting [9]) is below 25%; in assay [2] (setting [9]), below 25%; in assay [3] (setting [9]) it was below 25%; in assay [4] (setting [9]), above 25%. The inhibition at 10 µM in assay [1] (setting [9]) is below 50%; in assay [2] (setting [9]) it was below 50%; in assay [3] (setting [9]), below 50%; in assay [4] (setting [9]), above 50%. Also, the “suppression of tumor growth (in words)” value in assay [5] was “significantly suppressed”; in assay [6], “a significant growth suppressive effect was observed”; in assay [7], “a significant suppressive effect was not obtained”.
